Source: publication PMC6458995, “MAP4K4 Inhibition Promotes Survival of Human Stem Cell-Derived Cardiomyocytes and Reduces Infarct Size In Vivo” (Cell Stem Cell, 2019)

Columns and labels:
Assay in all cases: Dundee kinase panel
Format in all cases: biochemical
Conditions in all cases: for remaining activity at 1 µM: read-out: residual activity
[1] = target: T1, CHK2 (Homo sapiens, UniProt O96017)
T1 construct: lines 1-140) and Reaction Biology
Protocol: (§1) Compounds were screened at 1 μM. For key hits, pIC50 values were then determined by HTRF as above. […] Stability in mouse and human liver microsomes was determined by Cyprotex.

[2] = target: T2, ERK8 (Homo sapiens, UniProt Q8TD08)
T2 construct: lines 1-140) and Reaction Biology
T2 sequence (Q8TD08 1-544): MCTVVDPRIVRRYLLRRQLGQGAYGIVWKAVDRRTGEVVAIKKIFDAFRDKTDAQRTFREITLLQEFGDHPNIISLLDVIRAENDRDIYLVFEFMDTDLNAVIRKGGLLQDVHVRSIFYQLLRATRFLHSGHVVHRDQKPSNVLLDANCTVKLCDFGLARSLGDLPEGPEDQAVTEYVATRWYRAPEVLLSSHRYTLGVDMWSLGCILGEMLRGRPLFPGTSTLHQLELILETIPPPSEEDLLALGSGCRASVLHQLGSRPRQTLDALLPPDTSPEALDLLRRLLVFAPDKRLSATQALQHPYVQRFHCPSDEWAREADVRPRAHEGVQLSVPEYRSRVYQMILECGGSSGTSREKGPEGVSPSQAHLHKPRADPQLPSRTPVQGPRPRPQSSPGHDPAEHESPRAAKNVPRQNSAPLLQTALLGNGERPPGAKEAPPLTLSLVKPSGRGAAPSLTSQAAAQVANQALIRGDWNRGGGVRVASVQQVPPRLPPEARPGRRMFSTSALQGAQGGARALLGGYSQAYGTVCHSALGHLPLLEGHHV
Protocol: as §1

[3] = target: T3, HIPK3 (Homo sapiens, UniProt Q9H422)
T3 construct: lines 1-140) and Reaction Biology
Protocol: as §1

[4] = target: T4, MARK4 (Homo sapiens, UniProt Q96L34)
T4 construct: lines 1-140) and Reaction Biology
T4 sequence (Q96L34 1-752): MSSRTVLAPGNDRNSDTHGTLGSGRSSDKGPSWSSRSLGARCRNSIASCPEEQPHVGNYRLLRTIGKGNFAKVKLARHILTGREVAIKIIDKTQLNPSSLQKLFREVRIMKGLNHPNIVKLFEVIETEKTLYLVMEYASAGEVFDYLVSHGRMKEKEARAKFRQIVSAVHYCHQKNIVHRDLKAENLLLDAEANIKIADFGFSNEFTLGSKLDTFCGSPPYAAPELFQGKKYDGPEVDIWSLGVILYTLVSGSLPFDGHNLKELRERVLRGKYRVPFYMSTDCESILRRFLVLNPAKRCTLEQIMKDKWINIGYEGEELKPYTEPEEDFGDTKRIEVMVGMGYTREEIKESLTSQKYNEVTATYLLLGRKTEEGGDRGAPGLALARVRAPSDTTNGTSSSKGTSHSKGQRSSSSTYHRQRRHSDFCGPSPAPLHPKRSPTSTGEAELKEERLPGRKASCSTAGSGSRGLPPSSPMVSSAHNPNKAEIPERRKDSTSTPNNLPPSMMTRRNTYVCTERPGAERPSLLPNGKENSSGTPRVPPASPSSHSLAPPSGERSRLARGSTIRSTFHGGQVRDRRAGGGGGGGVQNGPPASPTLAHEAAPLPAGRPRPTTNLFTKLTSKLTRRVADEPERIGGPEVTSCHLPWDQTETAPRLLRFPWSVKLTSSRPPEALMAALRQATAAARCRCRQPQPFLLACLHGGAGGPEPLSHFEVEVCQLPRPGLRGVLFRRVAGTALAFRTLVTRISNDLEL
Protocol: as §1

[5] = target: T5, MKK1 (Homo sapiens, UniProt Q02750)
T5 construct: lines 1-140) and Reaction Biology
Protocol: as §1

[6] = target: T6, MST4 (Homo sapiens, UniProt Q9P289)
T6 construct: lines 1-140) and Reaction Biology
Protocol: as §1

[7] = target: T7, NUAK1 (Homo sapiens, UniProt O60285)
T7 construct: lines 1-140) and Reaction Biology
T7 sequence (O60285 1-661): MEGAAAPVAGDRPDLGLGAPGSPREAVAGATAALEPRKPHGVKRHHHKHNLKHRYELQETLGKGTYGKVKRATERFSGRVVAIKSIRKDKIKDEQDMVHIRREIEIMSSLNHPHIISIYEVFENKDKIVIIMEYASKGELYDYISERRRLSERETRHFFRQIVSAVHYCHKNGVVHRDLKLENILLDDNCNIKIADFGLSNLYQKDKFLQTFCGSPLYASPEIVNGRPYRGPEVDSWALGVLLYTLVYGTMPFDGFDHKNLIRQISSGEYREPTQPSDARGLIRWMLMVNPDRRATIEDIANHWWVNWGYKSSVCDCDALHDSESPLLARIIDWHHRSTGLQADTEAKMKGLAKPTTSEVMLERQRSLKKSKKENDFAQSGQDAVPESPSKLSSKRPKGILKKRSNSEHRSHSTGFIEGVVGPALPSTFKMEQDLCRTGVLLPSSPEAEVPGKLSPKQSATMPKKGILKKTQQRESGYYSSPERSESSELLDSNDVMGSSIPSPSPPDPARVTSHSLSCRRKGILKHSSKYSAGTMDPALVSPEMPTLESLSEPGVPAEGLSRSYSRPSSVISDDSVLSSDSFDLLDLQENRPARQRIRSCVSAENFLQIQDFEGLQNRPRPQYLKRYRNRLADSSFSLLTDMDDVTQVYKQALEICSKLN
Protocol: as §1

[8] = target: T8, TBK1 (Homo sapiens, UniProt Q9UHD2)
T8 construct: lines 1-140) and Reaction Biology
T8 sequence (Q9UHD2 1-729): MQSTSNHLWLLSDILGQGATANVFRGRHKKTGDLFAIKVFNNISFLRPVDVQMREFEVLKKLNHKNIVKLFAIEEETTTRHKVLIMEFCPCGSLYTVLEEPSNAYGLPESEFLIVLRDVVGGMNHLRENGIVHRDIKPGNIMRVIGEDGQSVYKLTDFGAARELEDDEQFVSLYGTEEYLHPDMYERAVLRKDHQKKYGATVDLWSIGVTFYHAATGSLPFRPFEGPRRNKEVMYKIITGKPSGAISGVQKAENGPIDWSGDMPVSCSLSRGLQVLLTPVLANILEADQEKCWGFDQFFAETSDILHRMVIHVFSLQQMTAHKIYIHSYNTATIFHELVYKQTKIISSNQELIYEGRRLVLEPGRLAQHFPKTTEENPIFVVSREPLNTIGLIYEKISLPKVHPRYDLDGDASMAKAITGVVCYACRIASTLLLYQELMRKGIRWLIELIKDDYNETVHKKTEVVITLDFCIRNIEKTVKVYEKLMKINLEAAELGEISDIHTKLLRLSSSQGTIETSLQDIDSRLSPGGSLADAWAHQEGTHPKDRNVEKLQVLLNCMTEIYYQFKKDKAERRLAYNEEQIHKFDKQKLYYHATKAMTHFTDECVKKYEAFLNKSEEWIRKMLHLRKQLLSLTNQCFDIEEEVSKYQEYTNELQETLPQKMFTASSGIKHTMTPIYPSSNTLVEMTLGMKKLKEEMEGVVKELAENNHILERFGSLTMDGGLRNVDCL
Protocol: as §1

T5 sequence (Q02750 whole entry): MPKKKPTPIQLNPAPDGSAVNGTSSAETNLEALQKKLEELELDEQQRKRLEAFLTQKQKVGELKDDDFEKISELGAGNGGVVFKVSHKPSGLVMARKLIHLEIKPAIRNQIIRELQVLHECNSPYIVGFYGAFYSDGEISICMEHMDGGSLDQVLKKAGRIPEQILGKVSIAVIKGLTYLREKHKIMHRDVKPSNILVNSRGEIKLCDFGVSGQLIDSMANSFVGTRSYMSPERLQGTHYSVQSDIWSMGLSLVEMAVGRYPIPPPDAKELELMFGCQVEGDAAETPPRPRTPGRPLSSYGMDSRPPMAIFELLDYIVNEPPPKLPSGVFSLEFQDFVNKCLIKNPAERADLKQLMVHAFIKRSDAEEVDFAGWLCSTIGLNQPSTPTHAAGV
T3 sequence (Q9H422 whole entry): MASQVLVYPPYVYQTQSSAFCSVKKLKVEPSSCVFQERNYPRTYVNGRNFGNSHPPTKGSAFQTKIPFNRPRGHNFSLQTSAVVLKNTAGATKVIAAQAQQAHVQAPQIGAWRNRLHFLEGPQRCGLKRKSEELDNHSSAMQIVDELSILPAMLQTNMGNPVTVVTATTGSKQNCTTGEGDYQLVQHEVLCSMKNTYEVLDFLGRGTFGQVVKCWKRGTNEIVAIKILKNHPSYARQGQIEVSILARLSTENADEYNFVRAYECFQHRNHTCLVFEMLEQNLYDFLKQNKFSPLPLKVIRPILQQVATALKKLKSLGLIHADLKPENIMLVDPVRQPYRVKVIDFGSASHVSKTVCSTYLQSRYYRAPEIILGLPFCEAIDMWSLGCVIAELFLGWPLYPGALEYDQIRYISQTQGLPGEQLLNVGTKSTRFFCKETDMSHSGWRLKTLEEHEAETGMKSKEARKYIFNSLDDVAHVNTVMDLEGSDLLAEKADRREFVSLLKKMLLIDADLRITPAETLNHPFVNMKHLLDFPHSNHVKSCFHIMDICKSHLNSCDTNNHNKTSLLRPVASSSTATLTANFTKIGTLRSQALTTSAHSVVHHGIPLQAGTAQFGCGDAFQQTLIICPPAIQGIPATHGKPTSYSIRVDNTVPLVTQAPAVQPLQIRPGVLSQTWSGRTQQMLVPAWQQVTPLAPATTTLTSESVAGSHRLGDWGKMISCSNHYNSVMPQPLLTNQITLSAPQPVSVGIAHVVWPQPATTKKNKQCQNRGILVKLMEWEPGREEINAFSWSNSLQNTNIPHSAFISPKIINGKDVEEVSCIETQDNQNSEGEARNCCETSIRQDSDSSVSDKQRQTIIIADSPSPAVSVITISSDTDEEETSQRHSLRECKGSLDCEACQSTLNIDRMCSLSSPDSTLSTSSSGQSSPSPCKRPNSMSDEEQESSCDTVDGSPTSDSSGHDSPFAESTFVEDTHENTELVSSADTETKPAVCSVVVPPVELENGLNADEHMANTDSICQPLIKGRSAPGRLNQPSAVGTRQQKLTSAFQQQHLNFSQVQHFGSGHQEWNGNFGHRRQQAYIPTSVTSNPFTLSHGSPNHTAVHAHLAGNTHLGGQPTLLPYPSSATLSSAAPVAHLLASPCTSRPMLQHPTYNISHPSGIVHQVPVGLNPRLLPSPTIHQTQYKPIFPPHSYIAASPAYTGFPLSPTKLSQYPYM
T1 sequence (O96017 whole entry): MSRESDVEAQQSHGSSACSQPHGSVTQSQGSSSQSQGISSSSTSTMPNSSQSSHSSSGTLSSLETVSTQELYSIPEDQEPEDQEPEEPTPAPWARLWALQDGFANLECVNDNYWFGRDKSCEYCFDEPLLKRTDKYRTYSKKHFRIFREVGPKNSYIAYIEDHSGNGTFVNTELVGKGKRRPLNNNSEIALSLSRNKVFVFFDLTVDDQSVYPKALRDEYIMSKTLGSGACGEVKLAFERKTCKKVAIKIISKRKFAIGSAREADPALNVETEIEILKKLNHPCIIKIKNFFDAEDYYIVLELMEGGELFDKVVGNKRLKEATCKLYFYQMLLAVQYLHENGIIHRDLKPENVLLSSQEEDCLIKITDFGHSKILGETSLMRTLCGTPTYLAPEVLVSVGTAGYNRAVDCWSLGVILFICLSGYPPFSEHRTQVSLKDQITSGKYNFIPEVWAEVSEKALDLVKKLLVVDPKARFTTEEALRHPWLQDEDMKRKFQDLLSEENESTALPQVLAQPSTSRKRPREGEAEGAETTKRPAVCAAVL
T6 sequence (Q9P289 whole entry): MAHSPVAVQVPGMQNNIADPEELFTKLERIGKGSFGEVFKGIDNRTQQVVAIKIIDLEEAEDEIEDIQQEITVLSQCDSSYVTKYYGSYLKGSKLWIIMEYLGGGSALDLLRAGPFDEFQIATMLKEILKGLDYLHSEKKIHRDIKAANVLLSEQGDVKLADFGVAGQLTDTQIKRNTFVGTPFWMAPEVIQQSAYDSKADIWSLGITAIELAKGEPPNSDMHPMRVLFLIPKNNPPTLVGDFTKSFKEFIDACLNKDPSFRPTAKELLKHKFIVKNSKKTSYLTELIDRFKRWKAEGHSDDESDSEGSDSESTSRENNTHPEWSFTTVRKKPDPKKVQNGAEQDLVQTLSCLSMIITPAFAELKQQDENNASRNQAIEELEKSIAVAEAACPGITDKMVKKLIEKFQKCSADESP

Structure (SMILES) | remaining activity at 1 µM [1] [%] | remaining activity at 1 µM [2] [%] | remaining activity at 1 µM [3] [%] | remaining activity at 1 µM [4] [%] | remaining activity at 1 µM [5] [%] | remaining activity at 1 µM [6] [%] | remaining activity at 1 µM [7] [%] | remaining activity at 1 µM [8] [%] | residual activity ([1]; 1 μM) [%] | residual activity ([2]; 1 μM) [%] | residual activity ([3]; 1 μM) [%] | residual activity ([4]; 1 μM) [%] | residual activity ([5]; 1 μM) [%] | residual activity ([6]; 1 μM) [%] | residual activity ([7]; 1 μM) [%] | residual activity ([8]; 1 μM) [%]
O=C1Cc2c([nH]c3ccc(Br)cc23)-c2ccccc2N1 [Kenpaullone] | 25 | 46 | 87 | 39 | 97 | 74 | 79 | 90 | – | – | – | – | – | – | – | –
COCCOc1ccc(-c2cn(-c3ccccc3)c3nc[nH]c(=O)c23)cc1 [DMX-5804, 5-[4-(2-methoxy-ethoxy)-phenyl]-7-phenyl-3,7-dihydro-pyrrolo[2,3-d]pyrimidin-4-one] | 69 | 110 | 103 | 99 | 113 | 102 | 14 | 48 | – | – | – | – | – | – | – | –
O=C1Nc2ccc(I)cc2/C1=C/c1cc(Br)c(O)c(Br)c1 [GW5074] | 46 | 35 | 25 | 50 | 80 | 89 | 63 | 83 | – | – | – | – | – | – | – | –
Nc1ncc(C(=O)NC2CN(C(=O)C3CC3)C2)c2ccc(-c3cccc(F)c3)nc12 [GNE-495] | – | – | – | – | – | – | – | – | 102 | 95 | 81 | 51 | 56 | 117 | 49 | 104
Oc1ncnc2c1c(-c1ccccc1)cn2-c1ccccc1 [F1386-0303, 5,7-diphenyl-7H-pyrrolo[2,3-d]pyrimidin-4-ol] | 100 | 109 | 93 | 96 | 101 | 109 | 48 | 97 | – | – | – | – | – | – | – | –
